# According to patent publication US20250109127A1, “METHODS OF USE OF PHENOXYPROPYLAMINE COMPOUNDS TO TREAT DEPRESSION” (Minerva Neurosciences, Inc., priority 2013, published 2025):
# Where “and” joins values, the source holds several entries; their conditions need not be identical. Equal values may be shown once. Where a name gives a salt, the structure may show the parent alone.
# Test system: HVA release in the rat prefrontal cortex
# Assay: Microdialysis: HVA release in prefrontal cortex after I.P. administration
# Format: in vivo
# Conditions: for HVA (% of respective basal), individual animal: 0.1 mg/kg I.P., c2-c9 = R#13,14,20,19,25,26,31,32; for HVA (% of respective basal), individual animal / HVA release, individual animals: hydrochloride; for HVA release, MEAN / HVA release, individual animals: 0.3 mg/kg I.P.; for HVA release, MEAN / HVA release (% of basal levels) measured in dialysates, MEAN: n = 8; for HVA release, individual animals: one column per animal R#11,12,18,23,29,30,17,24; for HVA release (% of basal levels) measured in dialysates, MEAN: SON-117 3 mg/kg IP
# Description: The aim of the study was to evaluate, using microdialysis, the effects of an intraperitoneal (I.P.) administration in rats of three different doses of SON-117 on dopamine and its metabolites, serotonin and its metabolite (5-HIAA), and norepinephrine levels in prefrontal cortex.
# Thirty-two adult male Wistar rats were used for the whole study (4 groups of eight animals planned for the study, Table 1).
# Surgery was performed on rats weighing about 300 g at the beginning of the experiments. Rats were anaesthetized with Ketamine (50 mg/kg) & Xylazine (15 mg/kg) by intramuscular administration. The animals were placed in a stereotaxic apparatus in the flat-skull position at a constant setting of −3.3 mm between ear bars and the incisor bar. The animals were treated with a local anesthesic (xylocaine 1%, Astra Zeneca) and an analgesic (Temgesic, from Schering Plough, 0.05 mg/kg, s.c.). A rostrocaudal midline incision was made with a lancet to expose the dorsal skull surface. The “stereotaxic zero” was defined by the Bregma in accordance with Paxinos and Watson's atlas (1986). A hole was drilled in the skull with a drill and the meninges were pierced with a sterile needle to implant a CMA12 guide cannula which later received the dialysis probe.
# Coordinates used for implanting guide cannula in prefrontal cortex from Bregma were anteroposterior 3.7 mm, mediolateral 0.8 mm, and dorsoventral −2 mm (top of the probe was at −5 mm). The guide cannula was fixed to the skull with two stainless steel screws (1.88 mm outside diameter) anchored. An application of dental cement was added. A plastic collar allowed each animal to be tethered to a Swivel assembly of the CMA 120 awake animal system. Following surgery, rats were kept in individual cages and allowed to recover for a minimum of 3-5 days before the experimentation. The rats were handled and put in plastic bowl for 10 min at least every day to habituate the animals to their new environment for the dialysis. An I.P. administration with saline was also performed every day.
# Dialysis probes (CMA12/3 mm, membrane, 20 kD cut-off, Carnegie Medicine, Stockholm, Sweden), were carefully washed before inserting into the guide cannula. The wash was performed with the artificial cerebrospinal fluid (aCSF) medium (NaCl 147 mM, KCl 2.7 mM, CaCl2 1.2 mM, MgCl2 0.85 mM) at room temperature. The dialysis system was then equilibrated at 20° C. at a perfusion rate of 1 μl/min with a Carnegie pump (CMA100). All catheters (FEP tubing, internal volume of 1.2 μl/10 cm, and tubing adaptors) used for microdialysis were treated in the same conditions.
# The probes duly prepared were inserted into the guide cannula and the CMA120 Swivel assembly secured to the animal using a plastic collar. Flow through the dialysis probe with aCSF was maintained at a rate of 1 μl/min during the whole experimentation. The first four fractions (corresponding to 2 hours) were discarded to avoid the effects of parenchymal disturbance and to ensure that an approximate steady-state level was reached. Fractions were then collected over a period of 8.5 h during which time the animals remained quiet. The dialysates were automatically collected with an autosampler (microfraction collector CMA 140, Carnegie Medicin) and stored at −80° C. until analysis. […] Perfusion was then maintained for 7 hours with aCSF. The dialysates (30 μl) were collected into 300 μl vials, transferred into dry ice and then kept frozen (−80° C.) until analysis. Frozen samples were shipped to a partner for analysis. At the end of the microdialysis study, a PBS with colored ink was perfused through the probe in order to visualize the dialyzed area.
# Catecholamine assay: Concentrations of dopamine, DOPAC, HVA, 5-HIAA, 5-HT, and norepinephrin were determined for each sample by HPLC coupled with electrochemical detection.
smiles,measurement,setting,value
"Cc1nnc(-c2cc3c(OC[C@@H](O)CN4CCC(c5ccc(Cl)c(Cl)c5)CC4)cccc3o2)o1 [SON-117, (S)-1-(4-(3,4-dichlorophenyl)piperidino)-3-(2-(5-methyl-1,3,4-oxadiazol-2-yl)benzo(b)furan-4-yloxy)-2-propanol hydrochloride]","HVA (% of respective basal), individual animal",T30-T1 h,116.26 % of respective basal and 107.34 % of respective basal and 108.66 % of respective basal and 130.85 % of respective basal and 120.36 % of respective basal and 141.88 % of respective basal and 123.41 % of respective basal and 95.76 % of respective basal
same,"HVA (% of respective basal), individual animal",T1 h 30-T2 h,97.75 % of respective basal and 109.52 % of respective basal and 89.93 % of respective basal and 170.371 % of respective basal and 123.81 % of respective basal and 97.71 % of respective basal and 126.7 % of respective basal and 80.99 % of respective basal
same,"HVA (% of respective basal), individual animal",T1 h-T1 h 30,124.25 % of respective basal and 162.58 % of respective basal and 98.567 % of respective basal and 241.96 % of respective basal and 130.93 % of respective basal and 153.68 % of respective basal and 123.58 % of respective basal and 80.09 % of respective basal
same,"HVA (% of respective basal), individual animal",T2 h 30-T3 h,88.46 % of respective basal and 123.19 % of respective basal and 75.76 % of respective basal and 151.82 % of respective basal and 149.48 % of respective basal and 157.13 % of respective basal and 121.53 % of respective basal and 21.68 % of respective basal
same,"HVA (% of respective basal), individual animal",T2 h-T2 h 30,83.46 % of respective basal and 121.21 % of respective basal and 80.97 % of respective basal and 145.084 % of respective basal and 132.39 % of respective basal and 106.30 % of respective basal and 139.18 % of respective basal and 53.45 % of respective basal
same,"HVA (% of respective basal), individual animal",T3 h 30-T4 h,94.31 % of respective basal and 116.57 % of respective basal and 55.89 % of respective basal and 152.08 % of respective basal and 193.52 % of respective basal and 154.95 % of respective basal and 123.32 % of respective basal and 16.37 % of respective basal
same,"HVA (% of respective basal), individual animal",T3 h-T3 h 30,135.42 % of respective basal and 99.88 % of respective basal and 73.47 % of respective basal and 137.35 % of respective basal and 137.07 % of respective basal and 115.93 % of respective basal and 133.06 % of respective basal and 20.75 % of respective basal
same,"HVA (% of respective basal), individual animal",T4 h 30-T5 h,128.74 % of respective basal and 102.18 % of respective basal and 100.29 % of respective basal and 40.6 % of respective basal and 130.76 % of respective basal and 136.09 % of respective basal and 114.46 % of respective basal and 68.31 % of respective basal
same,"HVA (% of respective basal), individual animal",T4 h-T4 h 30,149.58 % of respective basal and 107.72 % of respective basal and 55.17 % of respective basal and 173.59 % of respective basal and 155.95 % of respective basal and 149.97 % of respective basal and 148.42 % of respective basal and 76.98 % of respective basal
same,"HVA (% of respective basal), individual animal",T5 h 30-T6 h,146.23 % of respective basal and 127.63 % of respective basal and 35.72 % of respective basal and 136.22 % of respective basal and 116.99 % of respective basal and 123.45 % of respective basal and 128.36 % of respective basal and 65.12 % of respective basal
same,"HVA (% of respective basal), individual animal",T5 h-T5 h 30,143.02 % of respective basal and 149.35 % of respective basal and 36.52 % of respective basal and 131.08 % of respective basal and 120.77 % of respective basal and 117.84 % of respective basal and 126.17 % of respective basal and 77.12 % of respective basal
same,"HVA (% of respective basal), individual animal",T6 h 30-T7 h,155.64 % of respective basal and 142.57 % of respective basal and 54.30 % of respective basal and 131.80 % of respective basal
same,"HVA (% of respective basal), individual animal",T6 h-T6 h 30,149.66 % of respective basal and 147.03 % of respective basal and 11.88 % of respective basal and 133.32 % of respective basal and 118.76 % of respective basal and 122.29 % of respective basal and 121.40 % of respective basal and 66.42 % of respective basal
same,"HVA release, MEAN",T0-T30 min,107.04 % of respective basal
same,"HVA release, MEAN",T30-T1 h,94.37 % of respective basal
same,"HVA release, individual animals",T30-T1 h,76.21 % of respective basal and 55.15 % of respective basal and 89.64 % of respective basal and 100.95 % of respective basal and 83.39 % of respective basal and 95.38 % of respective basal and 149.36 % of respective basal and 104.86 % of respective basal
same,"HVA release, MEAN",T1 h 30-T2 h,85.59 % of respective basal
same,"HVA release, individual animals",T1 h 30-T2 h,89.77 % of respective basal and 59.14 % of respective basal and 96.89 % of respective basal and 103.49 % of respective basal and 82.49 % of respective basal and 54.42 % of respective basal and 95.23 % of respective basal and 103.32 % of respective basal
same,"HVA release, MEAN",T1 h-T1 h 30,120.85 % of respective basal
same,"HVA release, individual animals",T1 h-T1 h 30,90.43 % of respective basal and 68.90 % of respective basal and 103.82 % of respective basal and 116.53 % of respective basal and 80.54 % of respective basal and 85.72 % of respective basal and 305.74 % of respective basal and 115.15 % of respective basal
same,"HVA release, MEAN",T2 h 30-T3 h,107.95 % of respective basal
same,"HVA release, individual animals",T2 h 30-T3 h,72.76 % of respective basal and 59.51 % of respective basal and 90.20 % of respective basal and 316.58 % of respective basal and 70.98 % of respective basal and 94.71 % of respective basal and 54.48 % of respective basal and 104.42 % of respective basal
same,"HVA release, MEAN",T2 h-T2 h 30,85.33 % of respective basal
same,"HVA release, individual animals",T2 h-T2 h 30,68.39 % of respective basal and 70.39 % of respective basal and 95.76 % of respective basal and 101.52 % of respective basal and 72.96 % of respective basal and 85.03 % of respective basal and 97.42 % of respective basal and 91.18 % of respective basal
same,"HVA release, MEAN",T3 h 30-T4 h,90.45 % of respective basal
same,"HVA release, individual animals",T3 h 30-T4 h,64.18 % of respective basal and 83.25 % of respective basal and 133.74 % of respective basal and 64.93 % of respective basal and 107.52 % of respective basal and 70.49 % of respective basal and 109.07 % of respective basal
same,"HVA release, MEAN",T3 h-T3 h 30,85.22 % of respective basal
same,"HVA release, individual animals",T3 h-T3 h 30,63.81 % of respective basal and 90.24 % of respective basal and 111.62 % of respective basal and 62.71 % of respective basal and 98.55 % of respective basal and 74.57 % of respective basal and 95.05 % of respective basal
same,"HVA release, MEAN",T4 h 30-T5 h,85.23 % of respective basal
same,"HVA release, individual animals",T4 h 30-T5 h,91.96 % of respective basal and 80.15 % of respective basal and 68.04 % of respective basal and 115.19 % of respective basal and 50.60 % of respective basal and 77.44 % of respective basal and 98.06 % of respective basal and 100.39 % of respective basal
same,"HVA release, MEAN",T4 h-T4 h 30,85.20 % of respective basal
same,"HVA release, individual animals",T4 h-T4 h 30,92.27 % of respective basal and 67.44 % of respective basal and 79.90 % of respective basal and 118.84 % of respective basal and 74.80 % of respective basal and 79.15 % of respective basal and 73.39 % of respective basal and 95.82 % of respective basal
same,"HVA release, MEAN",T5 h 30-T6 h,83.81 % of respective basal
same,"HVA release, individual animals",T5 h 30-T6 h,88.34 % of respective basal and 70.37 % of respective basal and 54.74 % of respective basal and 111.90 % of respective basal and 57.33 % of respective basal and 69.05 % of respective basal and 120.47 % of respective basal and 98.25 % of respective basal
same,"HVA release, MEAN",T5 h-T5 h 30,72.11 % of respective basal
same,"HVA release, individual animals",T5 h-T5 h 30,33.79 % of respective basal and 37.83 % of respective basal and 125.18 % of respective basal and 104.80 % of respective basal and 54.92 % of respective basal and 81.46 % of respective basal and 45.38 % of respective basal and 93.54 % of respective basal
same,"HVA release, MEAN",T6 h 30-T7 h,82.40 % of respective basal
same,"HVA release, individual animals",T6 h 30-T7 h,80.98 % of respective basal and 79.92 % of respective basal and 57.44 % of respective basal and 123.91 % of respective basal and 59.14 % of respective basal and 77.28 % of respective basal
same,"HVA release, MEAN",T6 h-T6 h 30,78.87 % of respective basal
same,"HVA release, individual animals",T6 h-T6 h 30,80.55 % of respective basal and 69.54 % of respective basal and 51.01 % of respective basal and 121.49 % of respective basal and 63.35 % of respective basal and 86.74 % of respective basal and 63.13 % of respective basal and 95.14 % of respective basal
same,"HVA release, MEAN",T-30 min-T0 (before administration),101.32 % of respective basal
same,"HVA release, MEAN",T-1 h 30-T-1 h (before administration),95.27 % of respective basal
same,"HVA release, MEAN",T-1 h-T-30 min (before administration),103.42 % of respective basal
same,HVA dialysate levels vs mean pre-administration value,SON-117 0.1 mg/kg I.P.,no statistically significant differences
same,HVA dialysate levels vs mean pre-administration value,SON-117 0.3 mg/kg IP,no statistically significant differences
same,"HVA release (% of basal levels) measured in dialysates, MEAN",T0-T30 min,94.34 % of basal levels
same,"HVA release (% of basal levels) measured in dialysates, MEAN",T30-T1 h,98.30 % of basal levels
